# Results published in patent US10626438B2, “Fluorescent substrates for determining lysine modifying enzyme activity” (The Broad Institute, Inc., priority 2011, dated 2020).
# Target: HDAC1 (Homo sapiens, UniProt Q13547)
# Settings: for T(½): Broad Substrate A; for mechanism of inhibition (on/off kinetics): progress curves monitored for 4 hours and reversibility by 100-fold dilution
# HDAC1, sequence (Q13547 whole entry): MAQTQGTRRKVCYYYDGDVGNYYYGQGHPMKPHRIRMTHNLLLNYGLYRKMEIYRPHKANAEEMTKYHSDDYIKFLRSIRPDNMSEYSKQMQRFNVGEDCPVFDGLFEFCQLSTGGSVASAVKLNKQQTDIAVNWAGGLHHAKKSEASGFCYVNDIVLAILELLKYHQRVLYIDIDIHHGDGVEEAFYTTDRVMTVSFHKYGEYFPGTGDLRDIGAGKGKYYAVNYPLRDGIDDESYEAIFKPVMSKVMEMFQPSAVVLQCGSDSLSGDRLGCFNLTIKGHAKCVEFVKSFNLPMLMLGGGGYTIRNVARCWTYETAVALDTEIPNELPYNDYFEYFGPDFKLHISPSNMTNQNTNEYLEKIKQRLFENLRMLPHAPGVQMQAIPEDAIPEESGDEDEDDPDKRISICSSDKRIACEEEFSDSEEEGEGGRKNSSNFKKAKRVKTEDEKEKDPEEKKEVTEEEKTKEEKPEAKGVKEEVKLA
Structure (SMILES),T(½),mechanism of inhibition (on/off kinetics)
CC(=O)Nc1ccc(C(=O)Nc2ccccc2N)cc1 [CI-994],74 min,slow on/slow off inhibitor
O=C(CCCCCCC(=O)Nc1ccccc1)NO [SAHA],<4 min,fast on/fast off inhibitor
